We go through one substance from patent publication US7214688B2 (priority 2000, dated 2007).

The experiment addresses α7 nAChR subtype (Rattus norvegicus, UniProt Q05941). It is filed as binding. To be noted: read-out: KD of radioligand (saturation curves, one site model).

Sequence of α7 nAChR subtype (Q05941 23-502 limits assumed): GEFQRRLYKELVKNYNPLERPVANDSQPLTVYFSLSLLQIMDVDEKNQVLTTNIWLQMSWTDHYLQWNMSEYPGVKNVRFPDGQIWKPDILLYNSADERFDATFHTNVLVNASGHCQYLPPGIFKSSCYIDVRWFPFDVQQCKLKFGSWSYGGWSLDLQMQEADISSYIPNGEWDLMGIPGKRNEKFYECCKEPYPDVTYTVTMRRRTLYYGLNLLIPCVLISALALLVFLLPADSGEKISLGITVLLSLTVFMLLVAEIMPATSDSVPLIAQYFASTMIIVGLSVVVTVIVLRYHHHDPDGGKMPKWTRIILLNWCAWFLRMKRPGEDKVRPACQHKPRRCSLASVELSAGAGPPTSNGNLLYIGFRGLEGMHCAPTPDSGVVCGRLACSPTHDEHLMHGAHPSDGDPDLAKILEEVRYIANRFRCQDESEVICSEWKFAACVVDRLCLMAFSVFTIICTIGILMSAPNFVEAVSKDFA

In the case of “125I-α-Bungarotoxin [Example 125I-α-BTX]”, the Kd worked out at 1.67 nM.
